Reference: patent US8604034B2, “Substituted imidazo[1,2-α]pyrrolo[1,2-d]pyrazines for treating respiratory syncytial virus (RSV) infections” (Biota Scientific Management Pty Ltd., priority 2010, dated 2013)
Where two headings read alike, the source gives them in different places.

System: RSV A2
Test: RSV antiviral cytopathic effect (CPE) assay
Type: cell-based
Details: human respiratory syncytial virus, HEp-2, 120 h, HEp2 cells infected with RSV A2 (moi ~0.01), 5 days, MTT readout
In short: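 HEp2 cells infected with RSV A2 (moi ~0.01) and incubated with serially diluted compound for 5 days at 37 °C. CPE read by MTT metabolism (absorbance 540/650 nm); uninfected cells gave cytotoxicity. EC50 and CC50 obtained by non-linear regression.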

[1] = read-out: Activity Range (RSV A2 EC50)
[2] = mean EC50, read-out: RSV A2 EC50

Structure (SMILES)	EC50 [1] [nM]	EC50 [2] [nM]
Cc1ccc(C23Cn4c(C)ccc4C(=O)N2CCN3C(=O)c2conc2C)cn1 (stereo not shown) [Compound 151]	< 49	8.7
COc1ccc(C23Cn4c(C)ccc4C(=O)N2CCN3C(=O)c2conc2C)cn1 (stereo not shown) [Compound 152]	< 49	5.8
Cc1nocc1C(=O)N1CCN2C(=O)c3ccc(C)n3CC12c1ccc(CO)cc1 (stereo not shown) [Compound 153]	< 49	6.2
Cc1nocc1C(=O)N1CCN2C(=O)c3ccc(C)n3CC12c1ccc(F)cc1 (stereo not shown) [Compound 154, 10a-(4-fluorophenyl)-8-methyl-1-[(3-methyl-1,2-oxazol-4-yl)carbonyl]-2,3,10,10a-tetrahydro-1H,5H-imidazo[1,2-d]pyrrolo[1,2-d]pyrazin-5-one]	< 49	2.3
COc1ccc(C23Cn4nccc4C(=O)N2CCN3C(=O)c2conc2C)cc1 (stereo not shown) [Compound 157]	100 to 499	360
